From patent publication US20200369667A1, “HETEROCYCLIC COMPOUNDS AS PRMT5 INHIBITORS” (ANGEX PHARMACEUTICAL, INC., priority 2017, published 2020)

What follows are compounds tested against PRMT5:MEP50 (Homo sapiens, UniProt O14744) (assay: PRMT5:MEP50 Flashplate Assay). Details: PRMT5:MEP50 inhibitory activity, 3H-SAM FlashPlate, class symbol.
Chain of PRMT5:MEP50 (O14744 whole entry, species assumed): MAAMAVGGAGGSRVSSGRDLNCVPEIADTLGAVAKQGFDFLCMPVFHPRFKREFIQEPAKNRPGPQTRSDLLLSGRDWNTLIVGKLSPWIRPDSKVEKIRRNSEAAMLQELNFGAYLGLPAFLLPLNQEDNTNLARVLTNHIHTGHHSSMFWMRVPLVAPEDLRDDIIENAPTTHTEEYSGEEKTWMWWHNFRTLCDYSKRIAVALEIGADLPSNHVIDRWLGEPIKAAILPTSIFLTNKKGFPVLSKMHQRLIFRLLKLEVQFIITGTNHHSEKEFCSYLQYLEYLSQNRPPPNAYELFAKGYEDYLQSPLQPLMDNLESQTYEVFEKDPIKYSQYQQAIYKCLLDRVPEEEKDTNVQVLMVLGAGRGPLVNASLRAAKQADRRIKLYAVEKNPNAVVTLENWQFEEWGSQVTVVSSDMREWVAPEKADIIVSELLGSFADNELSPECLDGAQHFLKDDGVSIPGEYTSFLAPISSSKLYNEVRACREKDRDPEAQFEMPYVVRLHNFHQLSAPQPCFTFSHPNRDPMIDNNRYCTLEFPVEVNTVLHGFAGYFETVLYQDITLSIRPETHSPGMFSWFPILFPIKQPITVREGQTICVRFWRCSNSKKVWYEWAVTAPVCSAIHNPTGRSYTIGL
Chain of PRMT5:MEP50 (Q9BQA1 whole entry partner, species assumed): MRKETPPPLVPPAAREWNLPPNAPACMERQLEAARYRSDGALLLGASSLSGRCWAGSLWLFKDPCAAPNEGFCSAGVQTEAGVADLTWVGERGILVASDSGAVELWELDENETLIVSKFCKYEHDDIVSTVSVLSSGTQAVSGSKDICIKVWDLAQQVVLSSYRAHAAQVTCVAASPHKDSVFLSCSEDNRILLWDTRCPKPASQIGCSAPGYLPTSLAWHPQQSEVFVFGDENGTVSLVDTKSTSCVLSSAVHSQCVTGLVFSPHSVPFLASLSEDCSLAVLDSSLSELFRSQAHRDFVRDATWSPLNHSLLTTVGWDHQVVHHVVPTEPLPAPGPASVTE
Assay type: biochemical
Procedure: Ten-point curves of inhibitor compounds were made using serial threefold dilutions in DMSO (the final top concentration of compound was 10 μM, 1% DMSO). Reaction mixture consisting of 50 mM Tris-HCl (pH 8.5), 0.002% Tween20, 0.005% BSA (Bovine Serum Albumin), 1 mM TCEP, and 1% DMSO. Substrates are freshly prepared in reaction buffer. PRMT5:MEP50 was then added into substrate solution and mixed gently. Inhibitor compound was then added and incubated for 30 min at room temperature. ^3H-SAM was added to initiate the reaction. Reactions were incubated for 2 h at room temperature and quenched with 0.5 mM SAM (S-adenosyl-L-Methionine) in assay buffer. An aliquot of the reaction mix was transferred to a streptavidin-coated 384-well FlashPlate (PerkinElmer). After an incubation time of 1 h, the plate was washed and then read on a TopCount (PerkinElmer) to measure the amount of tritium incorporated into the peptide substrate. IC50 was calculated using conventional curve-fitting method.
`Cn1c(N)nc2cc(CC[C@H]3C[C@@H](n4ccc5c(N)ncnc54)[C@H](O)[C@@H]3O)ccc2c1=O` [Compound 1-7, 2-amino-7-(2-((1S,2R,3S,4R)-4-(4-amino-7H-pyrrolo[2,3-d]pyrimidin-7-yl)-2,3-dihydroxycyclopentyl)ethyl)-3-methylquinazolin-4(3H)-one] gave an IC50 of less than 1 nM. For `C[C@H]1COc2cc3ccc(CC[C@H]4C[C@@H](n5ccc6c(N)ncnc65)[C@H](O)[C@@H]4O)cc3nc2N1` [Compound 1-8, (1R,2S,3R,5S)-3-(4-amino-7H-pyrrolo[2,3-d]pyrimidine-7-yl)-5-(2-((S)-3-methyl-3,4-dihydro-2H-[1,4]oxazino[3,2-b]quinoline-7-yl)ethyl)cyclopentane-1,2-diol], the IC50 was less than 1 nM. Compound `C[C@@H]1COc2cc3ccc(CC[C@H]4C[C@@H](n5ccc6c(N)ncnc65)[C@H](O)[C@@H]4O)cc3nc2N1` [Compound 1-9] has an IC50 of less than 1 nM. `C[C@@H]1CNc2nc3cc(CC[C@H]4C[C@@H](n5ccc6c(N)ncnc65)[C@H](O)[C@@H]4O)ccc3cc2O1` [Compound 1-10] was tested, and the IC50 was less than 1 nM. For `C[C@H]1CNc2nc3cc(CC[C@H]4C[C@@H](n5ccc6c(N)ncnc65)[C@H](O)[C@@H]4O)ccc3cc2O1` [Compound 1-11], the IC50 was less than 1 nM. `Nc1ncnc2c1ccn2[C@@H]1C[C@H](CCc2ccc3cc4c(nc3c2)NC(=O)CO4)[C@@H](O)[C@H]1O` [Compound 1-12] showed an IC50 of less than 1 nM. For `Nc1ncnc2c1ccn2[C@@H]1C[C@H](CCc2ccc3cc4c(nc3c2)NCCS4)[C@@H](O)[C@H]1O` [Compound 1-13], the IC50 was less than 1 nM. `CN1C(N)=Nc2cc(CC[C@H]3C[C@@H](n4ccc5c(N)ncnc54)[C@H](O)[C@@H]3O)ccc2S1(=O)=O` [Compound 1-14] was tested, and the IC50 was less than 1 nM. For `CC1(C)C(N)=Nc2cc(CC[C@H]3C[C@@H](n4ccc5c(N)ncnc54)[C@H](O)[C@@H]3O)ccc2S1(=O)=O` [Compound 1-15], the IC50 was 1 to 100 nM. Work on `CC1(C)Oc2ccc(CC[C@H]3C[C@@H](n4ccc5c(N)ncnc54)[C@H](O)[C@@H]3O)cc2N=C1N` [Compound 1-16] yielded an IC50 of less than 1 nM. `Nc1ncnc2c1ccn2[C@@H]1C[C@H](CCc2ccc3c(=O)n(C4CC4)c(N)nc3c2)[C@@H](O)[C@H]1O` [Compound 1-17] gave an IC50 of less than 1 nM. Work on `CC1(C)Cn2c(nc3cc(CC[C@H]4C[C@@H](n5ccc6c(N)ncnc65)[C@H](O)[C@@H]4O)ccc3c2=O)N1` [Compound 1-18] yielded an IC50 of 1 to 100 nM. Compound `CN1C(N)=Nc2cc(CC[C@H]3O[C@@H](n4ccc5c(N)ncnc54)[C@H](O)[C@@H]3O)ccc2S1(=O)=O` [Compound 2-8] has an IC50 of 1 to 100 nM. With `C[C@@H]1CNc2nc3cc(CC[C@H]4O[C@@H](n5ccc6c(N)ncnc65)[C@H](O)[C@@H]4O)ccc3cc2O1` [Compound 2-9] the IC50 was 1 to 100 nM. With `C[C@H]1CNc2nc3cc(CC[C@H]4O[C@@H](n5ccc6c(N)ncnc65)[C@H](O)[C@@H]4O)ccc3cc2O1` [Compound 2-10] the IC50 was 1 to 100 nM. Compound `CC1(C)C(N)=Nc2cc(CC[C@H]3O[C@@H](n4ccc5c(N)ncnc54)[C@H](O)[C@@H]3O)ccc2S1(=O)=O` [Compound 2-11] has an IC50 of 1 to 100 nM. With `CC1(C)Oc2ccc(CC[C@H]3O[C@@H](n4ccc5c(N)ncnc54)[C@H](O)[C@@H]3O)cc2N=C1N` [Compound 2-12] the IC50 was less than 1 nM. Work on `Nc1nc2cc(CCC[C@H]3C[C@@H](n4ccc5c(N)ncnc54)[C@H](O)[C@@H]3O)ccc2cc1Br` [Compound 3-7] yielded an IC50 of 1 to 100 nM. `Nc1ncnc2c1ccn2[C@@H]1C[C@H](CCc2ccc3cc4c(nc3c2)NC(=O)CS4)[C@@H](O)[C@H]1O` [Compound 4-3] gave an IC50 of less than 1 nM.
